{"source": "patent US10576145B2", "about": "“CD200 inhibitors and methods of use thereof” (REGENTS OF THE UNIVERSITY OF MINNESOTA, priority 2014, dated 2020)", "key": {"[1]": {"tested_on": "naïve splenocytes exposed to GL261 cells", "experiment": "GL261 cells incubated with naive splenocytes in trans-well plate +/- CD200R antagonist: MDSC expansion and IFN-γ", "format": "cell-based, mouse", "procedure": "FIGS. 17A-17B. CD200R antagonist blocks MDSC expansion and tumor suppressive effects. (FIG. 17A) Murine glioma GL261 was incubated with naïve splenocytes in a trans-well plate+/−CD200R antagonist and analyzed for MDSC expansion and cytokine production. (FIG. 17B) Naïve splenocytes were pulsed with purified CD200+/−CD200R antagonist and analyzed for MDSC expansion and arginase-I production. Error bars are ±SEM, statistical significance was determined by one-way ANOVA, post hoc analysis by Dunn's multiple comparison test, *p<0.05, ** p<0.001.\nTo determine the level of MDSC expansion when splenocytes were exposed to tumor cells, splenocytes were also harvested and purified as described above; 300,000 splenocytes were plated in the bottom of 24 well transwell plates containing a 0.4-micron filter. Following 24 hr incubation, 30,000 GL261 cells were plated on the transwell insert with and without the CD200R antagonist 6059. Total volume was 700 μl/well so that the insert was submerged in the media within the wells. Cells were incubated for 5 days, harvested, and stained with CD11b and GR-1 to determine MDSC levels. In another set of wells, OVA was added to the wells 24 hours after the splenocytes were plated. Following another 72 hr incubation, 3×10^5 purified CD8 T-cells isolated from an OT-I mouse and were added to the wells and incubated for an additional 72 hrs. […]"}, "GL261 tumor bearing mice": {"tested_on": "GL261 tumor bearing mice", "experiment": "OVA+Poly:ICLC vaccination of GL261 tumor bearing mice +/- CD200R antagonist: OVA-specific CD8 T cells and recall cytokines", "format": "in vivo, C57BL/6 mice", "settings": "for SIINFEKL-specific CD8 T cells (OVA-specific T cell expansion): blood, flow cytometry", "text": "FIGS. 2A-2B. FIG. 2A) Vaccination scheme. Tumor bearing or non-tumor bearing mice were vaccinated on day 2 and 8 with an agonist (4012) or antagonist (6059) only, and on days 3-6 and 10 with OVA+Poly:ICLC+/−the competitive inhibitor 6059 (antagonist of a agonist). FIG. 2B) Mice were bled on day 10, whole blood was stained with an anti-CD8 and SI[[N]]INFEKL (SEQ ID NO: 11) specific detramer, lysed and analyzed by flow cytometry.\nFIGS. 3A-3B. Tumor bearing or non-tumor bearing mice were vaccinated on day 2 and 8 with an agonist or antagonist only, and on days 3-6 and 10 with OVA+Poly:ICLC+/−the competitive inhibitor 6059 (antagonist of a agonist). On day 10, were harvested and stimulated with OVA protein to measure a recall response via cytokine release. FIG. 3A) TNF alpha (PG/ML) levels from tumor bearing mice. FIG. 3B) INF gamma (PG/ML) levels in tumor bearing mice.\n(§1) FIGS. 12A-12C. […] Tumor and non-tumor bearing mice were vaccinated with OVA+Poly:ICLC+/−the CD200R antagonist 6059 and analyzed for FIG. 12A) SIINFEKL/Kb+CD8+ T cell expansion (‘SIINFEKL’ disclosed as SEQ ID NO: 11). FIG. 12B) Lymphocytes were harvested and stimulated with SIINFEKL peptide (SEQ ID NO: 11). Supernatants were analyzed for TNFα and IFNγ secretion. FIG. 12C) The antagonist 6059 was added to OVA+exosomes. Error bars indicate +/−SEM (n=4/group; *P<0.05; by t-test). FIGS. 12A-12C discloses ‘SIINFEKL’ disclosed as SEQ ID NO: 11.\nFIGS. 18A-18D. […] (FIG. 18A & FIG. 18B) Tumor bearing mice were vaccinated with OVA+Poly:ICLC+/−antagonist then analyzed for OVA-specific T cells and cytokine production following in vitro restimulation with OVA. Tumor bearing mice were vaccinated with saline (n=10), tumor lysate+CpG (n=10) or tumor lysate+CpG+antagonist 6059 (n=10). (FIG. 18C) Mice were imaged weekly for tumor growth and (FIG. 18D) followed for survival. Error bars are ±SEM, *p<0.05, ** p<0.001 was determined by one-way ANOVA, post hoc analysis by Dunn's multiple comparison test, log-rank analysis was used for survival. […]\nAnti-mouse CD8α-Pacific Blue (clone 53-6.7) was purchased from eBioscience. A SIINFEKL/K^b dextramer-PE (‘SIINFEKL’ disclosed as SEQ ID NO: 11) was used for detection of SIINFEKL/K^b-binding CD8 T-cells (Immunodex) (‘SIINFEKL’ disclosed as BEQ ID NO: 11). […] A 100 μl sample of whole blood was immediately analyzed for percentage of MDSCs ((Lineage-FITC (CD3, CD14, CD16, CD19, CD20, CD56) CD33-APC, HLA-DR-PerCp)) by flow cytometry. Sera CD200 levels were determined by ELISA (Sino Biological Inc.).\nLymph nodes were homogenized in RPMI media containing 10% FBS, penicillin/streptomycin (100 U/ml), and 0.1 mg/ml Normocin (Invivogen). […] Fifty microliters of supernatant was analyzed for IFN-γ using a flow cytometric bead array according to the manufacturer's protocol (BD Biosciences)."}, "non-tumor bearing mice": {"tested_on": "non-tumor bearing mice", "experiment": "Vaccination of non-tumor bearing mice with OVA + glioma-derived exosomes + antagonist", "format": "in vivo", "procedure": "as §1\nWhether the different antagonists described by Gorczynski et. al. (J Surg Res 2008; 145(1): 87-96) could modulate or reverse the suppressive effects of the tumor microenvironment was also investigated. It was concluded that different antagonists either act through different CD200R isoforms or have different biological effects on the same receptor. These conclusions were supported by experiments where splenocytes were pulsed with OVA+selected CD200R antagonists (6061, 6069, 4004, 4006, 4013) for 24 hours. The splenocytes were then washed and cultured for 48 hours with the addition of OT-1 T cells. The cultures were then assessed for cytokine production using a flow cytometric bead array. […] Other antagonists were similarly evaluated."}}, "note": "“Also recorded” adds a separate entry of the source.", "data": [{"sequence": "NTIGDGGCY [Antagonist 6059]", "values": [{"measurement": "IFN-γ production of OT-I CD8 T-cells in response to OVA", "setting": "[1]; trans-well with GL261 cells", "value": "blocked both the expansion of MDSCs as well as the production of IFN-γ"}, {"measurement": "Expansion of CD11b+Gr1+ MDSC induced by GL261 cells", "setting": "[1]; trans-well, 5 days", "value": "blocked both the expansion of MDSCs"}, {"measurement": "Suppressive effects of the tumor environment (overall statement)", "setting": "GL261 tumor bearing mice; prime boost model, tumor-bearing mice", "value": "reversed the suppressive effects in tumor-bearing mice; also recorded: reverses the suppressive effects of the tumor environment; also recorded: blocks CD200 induced immune suppression"}, {"measurement": "SIINFEKL-specific CD8 T cells (OVA-specific T cell expansion)", "setting": "GL261 tumor bearing mice; tumor bearing mice, OVA+Poly:ICLC +/- antagonist", "value": "reversed tumor induced suppression; also recorded: increased numbers of SIINFEKL-specific CD8 T-cells; also recorded: reversed the suppressive effects of the tumor microenvironment"}, {"measurement": "SIINFEKL-specific CD8 T cells (OVA-specific T cell expansion)", "setting": "GL261 tumor bearing mice; tumor bearing mice, OVA+Poly:ICLC +/- antagonist, listed as CD200 antagonist", "value": "significantly enhanced the expansion of a SIINFEKL/CD8 T cell population"}, {"measurement": "TNFα and IFNγ production after restimulation of cervical lymph node lymphocytes (recall response)", "setting": "GL261 tumor bearing mice; tumor bearing mice, OVA+Poly:ICLC +/- antagonist, restimulation with OVA/SIINFEKL, 48 hrs", "value": "modulate/reverse glioma-induced suppression; also recorded: significantly enhanced TNFγ and IFNγ production; also recorded: reversed the suppressive effects of the tumor microenvironment"}, {"measurement": "Suppression induced by glioma-derived exosomes", "setting": "non-tumor bearing mice", "value": "partially reversed the suppression induced by exosomes"}]}]}
